Measurements published in PubChem BioAssay (NCI).
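Step 1: Grow cells in 96-well plates. Step 2: Expose to compound for 48 hours at 5 concentrations. Step 3: Interpolate endpoints linearly; if unreached, use highest concentration. At the GI50, growth is halved. Definition used: TGI = concentration required for complete inhibition of growth.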

Tests used:
Assay in all cases: NCI tumour cell line growth inhibition, 48 h
SW-620 colon = system: SW-620 colon
OVCAR-4 ovarian = system: OVCAR-4 ovarian
MOLT-4 leukemia = system: MOLT-4 leukemia
SK-MEL-28 melanoma = system: SK-MEL-28 melanoma
K-562 leukemia = system: K-562 leukemia
SF-295 CNS = system: SF-295 CNS
TK-10 renal = system: TK-10 renal
UO-31 renal = system: UO-31 renal
SK-MEL-5 melanoma = system: SK-MEL-5 melanoma
HCT-116 colon = system: HCT-116 colon

Row | SMILES | GI50 (SW-620 colon) | TGI (SW-620 colon) | GI50 (OVCAR-4 ovarian) | TGI (OVCAR-4 ovarian) | GI50 (MOLT-4 leukemia) | TGI (MOLT-4 leukemia) | GI50 (SK-MEL-28 melanoma) | TGI (SK-MEL-28 melanoma) | GI50 (K-562 leukemia) | TGI (K-562 leukemia) | GI50 (SF-295 CNS) | TGI (SF-295 CNS) | GI50 (TK-10 renal) | TGI (TK-10 renal) | GI50 (UO-31 renal) | TGI (UO-31 renal) | GI50 (SK-MEL-5 melanoma) | TGI (SK-MEL-5 melanoma) | TGI (HCT-116 colon) | GI50 (HCT-116 colon)
1 | C=C(C)[C@@H]1CC[C@]2(C(=O)NC(C)=O)CC[C@]3(C)[C@H](CC[C@@H]4[C@@]5(C)CCCNC(C)(C)[C@@H]5CC[C@]43C)[C@@H]12 | 1.53 µM | 3.07 µM | 1.51 µM | 3.23 µM | 1.4 µM | 3.86 µM | 1.66 µM | 3.04 µM | 1.12 µM | 3.18 µM | 1.81 µM | 3.24 µM | 1.79 µM | 3.38 µM | 1.4 µM | 2.69 µM | 1.76 µM | 3.15 µM | – | –
2 | CC/C(=C\c1ccc(OC)cc1)c1ccc(OC)cc1 | – | > 100 µM | – | > 100 µM | – | > 100 µM | – | – | – | > 100 µM | – | > 100 µM | – | > 100 µM | – | > 100 µM | – | 80.7 µM | > 100 µM | –
3 | CC(C)(C)C1=C(Br)C(OC(=O)C(F)(F)F)(C(C)(C)C)OP1(=O)c1ccccc1 (configuration not stated) | – | – | – | > 100 µM | – | – | – | > 100 µM | – | > 100 µM | – | > 100 µM | – | > 100 µM | – | > 100 µM | – | > 100 µM | > 100 µM | –
4 | Clc1cc2nnn(C3CCCO3)c2cc1Cl (configuration not stated) | – | – | – | – | – | > 100 µM | – | – | – | > 100 µM | – | > 100 µM | – | > 100 µM | – | – | – | > 100 µM | > 100 µM | –
5 | Cc1ccc(S(=NS(=O)(=O)c2ccc(C)cc2)c2ccc(C)cc2)cc1 | – | > 100 µM | – | – | – | – | – | > 100 µM | – | > 100 µM | – | > 100 µM | – | > 100 µM | – | > 100 µM | – | – | > 100 µM | –
6 | O=C(Nc1ccc(Cl)cc1)c1cc(S(=O)(=O)Nc2n[nH]c(=O)n2-c2ccccc2)c(S)cc1Cl | – | > 100 µM | – | > 100 µM | – | > 100 µM | – | > 100 µM | – | – | – | > 100 µM | – | – | – | > 100 µM | – | > 100 µM | > 100 µM | –
7 | CC(=O)OCC1OC(n2c(-c3ccccc3)c(N=Nc3ccc(C)cc3)c(C)c(C#N)c2=S)C(OC(C)=O)C(OC(C)=O)C1OC(C)=O (configuration not stated) | – | 11.4 µM | – | 25.1 µM | – | 55.2 µM | – | 94.4 µM | – | > 100 µM | – | 97.2 µM | – | 47.6 µM | – | – | – | – | 15.4 µM | –
8 | O=C(N/N=C\c1ccc([N+](=O)[O-])s1)c1ccncc1 | – | > 45.4 µM | – | 30.2 µM | – | > 63.2 µM | – | > 64.9 µM | – | – | – | 44.5 µM | – | > 51.7 µM | – | > 38.5 µM | – | 12.8 µM | 19.5 µM | –
9 | O=C1CC(c2ccccc2)S(=O)c2ccccc2N1 (configuration not stated) | – | – | – | > 100 µM | – | > 100 µM | – | > 100 µM | – | > 100 µM | – | – | – | > 100 µM | – | > 100 µM | – | > 100 µM | > 100 µM | –
10 | COc1ccc(-c2n/c(=C\c3c(O)[nH]c4ccccc34)cc3c2=Nc2ccccc2-3)cc1 | 1.11 µM | 2.31 µM | 1.47 µM | 2.98 µM | 2.03 µM | 4.27 µM | 1.07 µM | 2.32 µM | 1.45 µM | 3.63 µM | – | – | 1.65 µM | 3.01 µM | 0.693 µM | 24.2 µM | 1.36 µM | 2.64 µM | 2.88 µM | 1.55 µM
11 | CC(=O)NC1C(OCc2ccccc2)OC(CO)C(O)C1OCC(=O)N[C@@H](C)C(=O)N[C@H](CCC(=O)NCCCNc1ccc([N+](=O)[O-])c2[nH]c3ccccc3c(=O)c12)C(N)=O (some centres not stated) | – | > 100 µM | – | 94.8 µM | – | – | – | > 100 µM | – | > 100 µM | – | > 100 µM | – | > 100 µM | – | > 100 µM | – | > 100 µM | > 100 µM | –
12 | O=C(O)c1ccc(N/C(=C(/C(Cl)=C(Cl)Cl)[N+](=O)[O-])n2nnc3ccccc32)cc1 | – | > 100 µM | – | > 100 µM | – | > 100 µM | – | > 100 µM | – | > 100 µM | – | > 100 µM | – | – | – | > 100 µM | – | – | > 100 µM | –
13 | CCOC(=O)C(C(=O)COC(C)(C)C)[C@@H]1C=C[C@H](OC(C)=O)C1 (some centres not stated) | – | > 100 µM | – | > 100 µM | – | > 100 µM | – | > 100 µM | – | > 100 µM | – | > 100 µM | – | – | – | > 100 µM | – | – | > 100 µM | –
14 | O=c1[nH]nc(-c2ccccc2)n1-n1cnnc1 | – | > 100 µM | – | > 100 µM | – | > 100 µM | – | – | – | > 100 µM | – | > 100 µM | – | > 100 µM | – | > 100 µM | – | > 100 µM | > 100 µM | –
15 | COc1ccc(-n2cnc3c(NC(Cc4ccccc4)C(=O)O)ncnc32)cc1 (configuration not stated) | – | > 100 µM | – | > 100 µM | – | – | – | > 100 µM | – | > 100 µM | – | > 100 µM | – | > 100 µM | – | > 100 µM | – | > 100 µM | > 100 µM | –
16 | Cc1cc2ccc(N)nc2[nH]c1=O | – | > 100 µM | – | – | – | – | – | – | – | – | – | > 100 µM | – | > 100 µM | – | > 100 µM | – | > 100 µM | > 100 µM | –
17 | CCNC(=S)N/N=C(\C)c1cccc(C)n1 | – | > 100 µM | – | – | – | > 100 µM | – | > 100 µM | – | > 100 µM | – | > 100 µM | – | > 100 µM | – | > 100 µM | – | 23.8 µM | 53.1 µM | –
18 | C=C(C)[C@@H]1CC[C@]2(CO)CC[C@]3(C)[C@H](CC[C@@H]4[C@@]5(C)CC[C@H](NCO)C(C)(C)[C@@H]5CC[C@]43C)[C@@H]12 | 0.948 µM | 1.96 µM | 0.827 µM | 1.59 µM | 1 µM | 2.56 µM | 0.894 µM | 1.61 µM | 0.974 µM | 3.59 µM | 0.873 µM | 1.58 µM | 0.965 µM | 1.78 µM | 0.703 µM | 1.35 µM | 0.87 µM | 1.59 µM | – | –
19 | O=c1cc(N2CCCC2)[nH]c(=O)n1-c1ccc(Cl)cc1 | – | > 100 µM | – | > 100 µM | – | > 100 µM | – | > 100 µM | – | > 100 µM | – | > 100 µM | – | > 100 µM | – | – | – | – | > 100 µM | –
20 | CCOC(=O)c1cc(Br)c(-c2cc(C)co2)[nH]1 | – | > 100 µM | – | > 100 µM | – | > 100 µM | – | > 100 µM | – | > 100 µM | – | > 100 µM | – | – | – | > 100 µM | – | > 100 µM | > 100 µM | –
